# Measured values as given in patent publication US20140024171A1, “PERYLENE TETRACARBOXYLIC ACID BISIMIDE DERIVATIVE, N-TYPE SEMICONDUCTOR, A METHOD FOR PRODUCING N-TYPE SEMICONDUCTOR, AND ELECTRONIC DEVICE” (NATIONAL UNIVERSITY CORPORATION KAGAWA UNIVERSITY, priority 2012, published 2014).
# Entries after “also recorded” stand apart in the source; their conditions may differ.
# How the values were obtained:
# [1] = Solubility in organic solvents; assay type: physicochemical
# Procedure: Thus, the liquid crystal compound (1-1) can be formed into a film by a spin coating method using a solution in any of these solvents. The film formation was performed as follows in the present example.
# Thus, the liquid crystal compound (2-1) can be formed into a film by a spin coating method using a solution in any of these solvents. The film formation was performed as follows in the present example.
# [2] = Charge transport properties (carrier mobility) by transient photocurrent measurement, Time-of-Flight (TOF) method; assay type: physicochemical; conditions: for maximum electron mobility calculated by the TOF method: room temperature (25° C.), sample thickness 9 μm, applied voltage 10 V to 100 V
# Procedure: Charge transport properties (carrier mobility properties) of the liquid crystal compound (2-1) ((2), m=1, n=1) obtained in Example 2 were measured by a Time-of-Flight (TOF) method. In this method, while a DC voltage was applied to a sandwich-type sample (liquid crystal cell produced in Example 4) having photoconductivity, the sample was irradiated with a pulse laser to cause photocarriers to be generated on one side of the sample, and a change in displacement current (transient photocurrent) induced in an external circuit when the carriers transited in the sample over time was measured. A constant current was generated by the transit of photocarriers, and when the carriers reached the counter electrode, the current was decayed to 0. The time from a start of decay in transient photocurrent to 0 corresponds to the time required for the carriers to transit in the sample (transit time). When the thickness of the sample is represented by d (cm), an applied voltage is represented by V (volt), and the transit time is represented by tT, mobility p (cm^2/Vs) is represented by the following mathematical expression. When an electrode on the irradiation side is biased to positive, mobility of positive carriers is determined, and when an electrode on the irradiation side is biased to negative, mobility of negative carriers is determined.
# The measurement by a Time-of-Flight method was performed as follows. That is, while a voltage was applied to the liquid crystal cell produced in Example 4 at room temperature, the liquid crystal cell was irradiated with a pulse laser (Nd: YAG laser, THG: wavelength of 356 nm, pulse width of 1 ns), and a displacement current induced at the time of the irradiation was measured with a digital oscilloscope. […] In FIG. 7, the horizontal axis indicates time (μs), and the vertical axis indicates a photocurrent (μA). The present sample has favorable photoconductivity, and thus, sufficiently strong current signal could be obtained. […] According to the measurement result, the mobility of negative carriers reached maximum at 1×10^−3 cm^2/Vs at 30° C. This value is higher by an order of magnitude than the mobility of a conjugate polymer-fullerene derivative composite generally used in a bulk hetero junction-type organic thin-film solar battery.
# Charge transport properties (carrier mobility properties) of the liquid crystal compound (2-44) ((2), m=0, n=1)) were measured through transient photocurrent measurement by a Time-of-Flight method using the liquid crystal cell produced in Example 8. The transient photocurrent measurement by a Time-of-Flight method was performed in the same manner as in the measurement of charge transport properties (carrier mobility properties) of the liquid crystal compound (2-1) ((2), m=1, n=1). The thickness of a sample of the liquid crystal compound (2-44) ((2), m=0, n=1)) was 25 μm. The measurement temperature was 40° C., and the measurement was performed while changing an applied voltage from 10 V to 100 V by 10 V increments. The graphs of FIGS. 11A and 11B show the results of the measurement. In FIGS. 11A and 11B, the horizontal axis indicates time (μs), and the vertical axis indicates a photocurrent (μA). As shown in FIGS. 11A and 11B, in the same time of flight, the higher the applied voltage was, the higher the photocurrent flowed.
# In addition, the same measurement as in FIGS. 11A and 11B was performed with a change in measurement temperature from 25° C. to 130° C. The result of the measurement is shown in a graph of FIG. 12A. In FIG. 12A, the horizontal axis indicates an electric field strength (10^4 V/cm), and the vertical axis indicates carrier mobility (cm^2/Vs). […] Thus, the vertical axis (carrier mobility) is equal to electron mobility.
# A result of the measurement at an electric field strength of 4.0×10^4 V/cm in FIG. 12A is shown in a graph of FIG. 12B as a function of time and electron mobility. […]
smiles,measurement,setting,value
"C[Si](C)(C)O[Si](C)(C)O[Si](C)(C)CCCCC(CCCC[Si](C)(C)O[Si](C)(C)O[Si](C)(C)C)N1C(=O)c2ccc3c4ccc5c6c(ccc(c7ccc(c2c37)C1=O)c64)C(=O)N(C(CCCC[Si](C)(C)O[Si](C)(C)O[Si](C)(C)C)CCCC[Si](C)(C)O[Si](C)(C)O[Si](C)(C)C)C5=O [Compound (2-1), perylene tetracarboxylic acid bis{di-(1,1,1,3,3,5,5-heptamethyltrisiloxanylbutyl)-methylimide}]",solubility in organic solvents,[1],"soluble in ethyl acetate, acetone, cyclohexane, and the like in addition to toluene, chlorobenzene, tetrahydrofuran, chloroform, dichloromethane, and the like; also recorded: high solubility in various organic solvents"
"C[Si](C)(C)O[Si](C)(C)O[Si](C)(C)CCCN1C(=O)c2ccc3c4ccc5c6c(ccc(c7ccc(c2c37)C1=O)c64)C(=O)N(CCC[Si](C)(C)O[Si](C)(C)O[Si](C)(C)C)C5=O [Compound (1-1), perylene tetracarboxylic acid bis(1,1,1,3,3,5,5-heptamethyltrisiloxanylpropylimide)]",solubility in organic solvents,[1],"soluble in toluene, chlorobenzene, tetrahydrofuran, chloroform, dichloromethane, and the like; also recorded: high solubility in various organic solvents"
"C=CCN1C(=O)c2ccc3c4ccc5c6c(ccc(c7ccc(c2c37)C1=O)c64)C(=O)N(CC=C)C5=O [Compound (6), perylene tetracarboxylic acid bis(allylimide)]",solubility in organic solvents,[1],barely dissolved in an organic solvent
"C[Si](C)(C)O[Si](C)(C)O[Si](C)(C)CCCCC(CCCC[Si](C)(C)O[Si](C)(C)O[Si](C)(C)C)Oc1ccc(N2C(=O)c3ccc4c5ccc6c7c(ccc(c8ccc(c3c48)C2=O)c75)C(=O)N(c2ccc(OC(CCCC[Si](C)(C)O[Si](C)(C)O[Si](C)(C)C)CCCC[Si](C)(C)O[Si](C)(C)O[Si](C)(C)C)cc2)C6=O)cc1 [Compound (5-1), N—N′-bis(4-(1,9,-di(1,1,1,3,3,5,5-heptamethyltrisiloxanyl)nonane-5-yloxy)phenyl)perylene-3,4,9,10-tetracarboxylic acid bisimide]",maximum electron mobility calculated by the TOF method,[2],1×10^−4 cm/Vs
C[Si](C)(C)O[Si](C)(C)CCCCC(CCCC[Si](C)(C)O[Si](C)(C)C)N1C(=O)c2ccc3c4ccc5c6c(ccc(c7ccc(c2c37)C1=O)c64)C(=O)N(C(CCCC[Si](C)(C)O[Si](C)(C)C)CCCC[Si](C)(C)O[Si](C)(C)C)C5=O [Compound (2-44)],electron mobility relative to the maximum electron mobility of liquid crystal compound (2-1),[2],100 times higher
same,maximum electron mobility,"[2]; 40° C., electric field strength 4.0×10^4 V/cm, sample thickness 25 μm",1.2×10^−1 cm^2/Vs
same,electron mobility at 130° C. relative to the electron mobility at 40° C.,[2]; temperature increased to 130° C.,about a half
C[Si](C)(C)O[Si](C)(C)CCCCCCC(CCCCCC[Si](C)(C)O[Si](C)(C)C)N1C(=O)c2ccc3c4ccc5c6c(ccc(c7ccc(c2c37)C1=O)c64)C(=O)N(C(CCCCCC[Si](C)(C)O[Si](C)(C)C)CCCCCC[Si](C)(C)O[Si](C)(C)C)C5=O [Compound (2-46)],electron mobility relative to the maximum electron mobility of liquid crystal compound (2-1),[2],about 10 times higher
same,maximum electron mobility calculated by the TOF method,[2],1×10^−2 cm/Vs
